Values joined by “and” are separate entries in the source; they are usually repeats but may differ in a detail not shown here. Equal values may be shown once.
Assays:
[1] = molecular target: T1, recombinant human ghrelin receptor (HEK293/GRLN) (Homo sapiens, UniProt Q92847); assay: Ghrelin inverse agonist potency (EC50) with IP-1 (IP-One HTRF) assay; type: cell-based; conditions: inverse agonist potency, IP-1 assay; read-out: EC50 (Activity)
T1 construct: expressed in transfected cells
Summary of the method: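 HEK293/GRLN cells were seeded 18-22 hours before the test, then exposed to compound in stimulation buffer for 1 hour at 37° C, 5% CO2. IP-1 was detected by IP-One HTRF (IP1-d2 plus Tb-cryptate, 1 hour RT), reading 620 and 665 nm; the inverse agonist EC50 was derived from this.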

[2] = molecular target: T2, GHSR-1a (HEK293/GHSR1a cell line) (Homo sapiens, UniProt Q92847); assay: Ghrelin antagonist potency (IC50) with calcium FLIPR assay, ghrelin 10 nM; type: cell-based; conditions: ghrelin antagonist potency, read-out: IC50 (Activity)
T2 construct: expressed in transfected cells; host or cells: HEK293/GHSR1a cell line
T2 sequence (Q92847 whole entry): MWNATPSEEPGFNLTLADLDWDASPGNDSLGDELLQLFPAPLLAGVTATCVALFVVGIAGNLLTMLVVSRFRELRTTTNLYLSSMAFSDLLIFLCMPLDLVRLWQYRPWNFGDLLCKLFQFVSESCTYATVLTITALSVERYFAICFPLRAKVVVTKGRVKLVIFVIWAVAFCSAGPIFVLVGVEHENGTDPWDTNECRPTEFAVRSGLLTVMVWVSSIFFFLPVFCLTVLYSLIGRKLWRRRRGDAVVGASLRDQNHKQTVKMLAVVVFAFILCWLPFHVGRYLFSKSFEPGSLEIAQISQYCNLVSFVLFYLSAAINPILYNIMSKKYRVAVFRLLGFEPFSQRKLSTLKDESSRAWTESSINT
Summary of the method: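 HEK293/GHSR1a cells, seeded 24 hr ahead and loaded with calcium dye 30-60 min, were read by FLIPR fluorescence for 2 min after addition at t=20 sec. Agonism: compound alone, EC50 from dose-response. Antagonism: compound plus 10 nM ghrelin, IC50 from reduction of ghrelin response.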

[3] = Metabolic stability in human liver microsomes; type: in vitro ADME
Protocol: (§1) Metabolic Stability Study
(§2) The metabolic stability of compounds in human, dog, rat and mouse liver microsomes was performed according the experimental conditions reported below:
(§3) • a) Prepare the following 5 stock solutions: • 1. Test compound stock solutions: dilute 10 mM solution of dextromethorphan (Dtr) in DMSO, 10 mM solution of diphenhydramine (DPA) in DMSO, 10 mM solution of omeprazole (Ome) in DMSO, 10 mM solution of verapamil (Ver) in DMSO, and 10 mM of an inverse agonist compound in DMSO to 0.25 mM solution each with acetonitrile/water (70/30). • 2. Buffer: 100 mM potassium phosphate Buffer (PBS) at pH 7.4 • 3. Liver microsomes (20 mg/ml): Thaw in 37° C. water bath quickly • 4. 2000 μL: of NADPH regenerating system (1.3 mM). Place this system on ice before use:
(§4) • 5. […] The test compound concentration in the wells, measured by LC-MS/MS, represents the concentration at time=0. • f) To determine the test compound concentration when t≠0, pre-incubate the NADPH regenerating system and the incubation plate containing the remaining 320 μL of incubation mixture (microsomes protein and test compound) for 5 minutes at 37° C. • g) Start the incubation reaction by adding 80 μL NADPH regenerating system to each well containing the remaining 320 μL incubation mixture. • h) After 10 min., 30 min., and 90 min. of incubation at 37° C., transfer 100 μL of the incubation mixture (microsomes protein, test compound, and NADPH) into the wells of a stop plate pre-filled with 300 μL of the cold quench solution. Shake well. • i) Centrifuge the stop plate at 5000×g for 10 minutes. Collect and dilute the supernatant 3 times with distilled water. Sample and analyze the test compound concentration for all the wells by LC-MS/MS. Animal PK Studies via i.v. (intravenous), p.o. (orally) and s.c. (subcutaneous) administrations

[4] = Metabolic stability in mouse liver microsomes; type: in vitro ADME
Protocol: as §1, §2, §3, §4

T1 sequence (Q92847 whole entry): as above

SMILES	EC50 [1]	IC50 [2] [nM]	Metabolic Stability Study H = human [3]	Metabolic Stability Study M = mouse [4]
CC(NC(=O)N(O)c1ccc(S(=O)(=O)Nc2ccc3c(c2)CNC3)cc1)c1cccc2ccccc12 (centres unmarked) [H1166, 4-(1-hydroxy-3-(1-(naphthalen-1-yl)ethyl)ureido)-N-(isoindolin-5-yl)benzenesulfonamide]	7.1 nM	9	19.9 µL/min/mg	14.5 µL/min/mg
COc1ccc(C(C)NC(=O)Nc2ccc(S(=O)(=O)Cc3ccc4c(c3)CNC4)cc2)c2ccccc12 (centres unmarked) [H1154, 1-(4-((isoindolin-5-ylmethyl)sulfonyl)phenyl)-3-(1-(4-methoxynaphthalen-1-yl)ethyl)urea]	29.8 nM and 26.8 nM	126	19.2 µL/min/mg	22.9 µL/min/mg
CCN1Cc2ccc(CS(=O)(=O)c3ccc(NC(=O)NC(C)c4ccccc4)cc3)cc2C1 (centres unmarked) [H1221, 1-(4-(((2-ethylisoindolin-5-yl)methyl)sulfonyl)phenyl)-3-(1-phenylethyl)urea]	38.7 nM	8.1	111.2 µL/min/mg	107.7 µL/min/mg
CC(NC(=O)Nc1ccc(S(=O)(=O)Cc2ccc3c(c2)CN(Cc2ccccc2)C3)cc1)c1ccccc1 (centres unmarked) [H1219, 1-(4-(((2-benzylisoindolin-5-yl)methyl)sulfonyl)phenyl)-3-(1-phenylethyl)urea]	163 nM	7.77	H > 500 M > 500 R = not reported D = not reported μL/min/mg	H > 500 M > 500 R = not reported D = not reported μL/min/mg
CCC(NC(=O)Nc1ccc(S(=O)(=O)Cc2ccc3c(c2)CN(C)C3)cc1)c1ccccc1 (centres unmarked) [H1235, 1-(4-(((2-methylisoindolin-5-yl)methyl)sulfonyl)phenyl)-3-(1-phenylpropyl)urea]	6.1 nM	32	102.4 µL/min/mg	87.1 µL/min/mg
Cc1oc(=O)oc1CN1CCc2cc(CS(=O)(=O)c3ccc(NC(=O)N[C@@H](C)c4cccc(Cl)c4Cl)cc3)ccc2C1 [H1067, (S)-1-(1-(2,3-dichlorophenyl)ethyl)-3-(4-(((2-((5-methyl-2-oxo-1,3-dioxol-4-yl)methyl)-1,2,3,4-tetrahydroisoquinolin-6-yl)methyl)sulfonyl)phenyl)urea]	4.5 nM	14	326.2 µL/min/mg	289 µL/min/mg
CN1Cc2ccc(CS(=O)(=O)c3ccc(NC(=O)NCc4ccccc4)cc3)cc2C1 [H1193, 1-benzyl-3-(4-(((2-methylisoindolin-5-yl)methyl)sulfonyl)phenyl)urea]	64 nM	324	49.8 µL/min/mg	43.7 µL/min/mg
CN1Cc2ccc(CS(=O)(=O)c3ccc(NC(=O)NC(c4ccccc4)C(F)(F)F)cc3)cc2C1 (centres unmarked) [H1227, 1-(4-(((2-methylisoindolin-5-yl)methyl)sulfonyl)phenyl)-3-(2,2,2-trifluoro-1-phenylethyl)urea]	175 nM	38.4	99.4 µL/min/mg	79.9 µL/min/mg
C[C@H](NC(=O)Nc1ccc(S(=O)(=O)Cc2ccc3c(c2)CNC3)cc1)c1cccc(Cl)c1Cl.Cl [H1056, (S)-1-(1-(2,3-dichlorophenyl)ethyl)-3-(4-((isoindolin-5-ylmethyl)sulfonyl)phenyl)urea]	2.6 nM	5.8	16.4 µL/min/mg	13.5 µL/min/mg
C[C@H](NC(=O)Nc1ccc(S(=O)(=O)Nc2cnc(N)nc2)cc1)c1cccc(Cl)c1Cl [H1108]	117 nM	422	38.7 µL/min/mg	47.5 µL/min/mg
C[C@H](NC(=O)Nc1ccc(S(=O)(=O)Nc2ccc(CC(C)(C)O)cc2)cc1)c1cccc(Cl)c1Cl [H1076, (S)-4-(3-(1-(2,3-dichlorophenyl)ethyl)ureido)-N-(4-(2-hydroxy-2-methylpropyl)phenyl) benzenesulfonamide]	57.7 nM	515	91.4 µL/min/mg	73.9 µL/min/mg
C[C@H](NC(=O)Nc1ccc(S(=O)(=O)Nc2ccc(N)cn2)cc1)c1cccc(Cl)c1Cl.Cl [H1127, (S)-N-(5-aminopyridin-2-yl)-4-(3-(1-(2,3-dichlorophenyl)ethyl)ureido) benzenesulfonamide]	94.7 nM	861	41 µL/min/mg	59.5 µL/min/mg
CCN1CCc2cc(NS(=O)(=O)c3ccc(NC(=O)N[C@@H](C)c4ccc(OC)c(Cl)c4Cl)cc3)ccc2C1 [H1018, (S)-4-(3-(1-(2,3-dichloro-4-methoxyphenyl)ethyl)ureido)-N-(2-ethyl-1,2,3,4-tetrahydroisoquinolin-6-yl)benzenesulfonamide]	13.7 nM	99.8	< 10 µL/min/mg	46.3 µL/min/mg
CCN1Cc2ccc(C(C)S(=O)(=O)c3ccc(NC(=O)NC(C)c4ccccc4)cc3)cc2C1 (centres unmarked) [H1234, 1-(4-((1-(2-ethylisoindolin-5-yl)ethyl)sulfonyl)phenyl)-3-(1-phenylethyl)urea]	15.4 nM	42.6	149.8 µL/min/mg	122.7 µL/min/mg
C[C@H](NC(=O)Nc1ccc(S(=O)(=O)Nc2ccc(CCO)cc2)cc1)c1cccc(Cl)c1Cl [H1094, (S)-4-(3-(1-(2,3-dichlorophenyl)ethyl)ureido)-N-(4-(2-hydroxyethyl)phenyl) benzenesulfonamide]	118 nM	488	55.1 µL/min/mg	100.8 µL/min/mg
C[C@H](NC(=O)Nc1ccc(S(=O)(=O)Nc2ccnc(N)n2)cc1)c1cccc(Cl)c1Cl [H1125, (S)-N-(2-aminopyrimidin-4-yl)-4-(3-(1-(2,3-dichlorophenyl)ethyl)ureido) benzenesulfonamide]	93.3 nM	893	10.7 µL/min/mg	14.9 µL/min/mg
CC(NC(=O)Nc1ccc(S(=O)(=O)Nc2ccc3c(c2)CNC3)cc1)c1ccccc1.Cl (centres unmarked) [H1156, N-(isoindolin-5-yl)-4-(3-(1-phenylethyl)ureido) benzenesulfonamide]	4.26 nM	10.3	18.1 µL/min/mg	12.9 µL/min/mg
C[C@H](NC(=O)Nc1ccc(S(=O)(=O)N(C)c2ccc(CC(C)(C)N)cc2)cc1)c1cccc(Cl)c1Cl.Cl [H0971, (S)-N-(4-(2-amino-2-methylpropyl)phenyl)-4-(3-(1-(2,3-dichlorophenyl)ethyl)ureido)-N-methylbenzenesulfonamide]	135 nM	417	31.9 µL/min/mg	24.8 µL/min/mg
CN(C)C(C)(C)Cc1ccc(NS(=O)(=O)c2ccc(NC(=O)NCc3ccccc3)cc2)cc1 [H1009, 4-(3-benzylureido)-N-(4-(2-(dimethylamino)-2-methylpropyl)phenyl) benzenesulfonamide]	32.8 nM	252	13.2 µL/min/mg	33.8 µL/min/mg
Cl.O=C(NCc1ccccc1)Nc1ccc(S(=O)(=O)Cc2ccc3c(c2)CNC3)cc1 [H1179, 1-benzyl-3-(4-((isoindolin-5-ylmethyl)sulfonyl)phenyl)urea]	37.4 nM	143	14.9 µL/min/mg	< 10 µL/min/mg
